What all share (assay type): cell-based
The target in assay [1] is T1, 17β-hydroxysteroid dehydrogenase type 1 (17β-HSD type 1) (Homo sapiens, UniProt P14061).
T1 construct: expressed in transfected cells; host or cells: MCF-7
T1 sequence (P14061 1-328): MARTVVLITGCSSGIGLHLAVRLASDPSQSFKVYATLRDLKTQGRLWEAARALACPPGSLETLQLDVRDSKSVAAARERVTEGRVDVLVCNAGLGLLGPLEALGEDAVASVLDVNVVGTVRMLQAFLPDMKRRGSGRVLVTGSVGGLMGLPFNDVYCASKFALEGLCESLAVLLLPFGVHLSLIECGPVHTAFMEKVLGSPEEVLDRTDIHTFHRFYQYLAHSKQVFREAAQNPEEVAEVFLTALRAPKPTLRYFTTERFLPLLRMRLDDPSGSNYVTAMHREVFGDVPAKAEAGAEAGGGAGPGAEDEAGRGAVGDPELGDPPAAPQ
The experiment in a line: Inhibition of 17β-HSD type 1 in MCF-7 cells stably expressing the isoenzyme (tritium labeled estrone conversion, HPLC). The note with it: MCF-7 cells expressing 17β-HSD type 1, 2 nM tritium labeled estrone; for inhibition at 1 µM / inhibition at 10 µM: MCF7; for inhibition at 1 µM / % Inhibition HSD1 1 μM: 1 μM test compound; for inhibition at 1 µM: read-out: % Inhibition HSD1 1 μM; for inhibition at 10 µM / % Inhibition HSD1 10 μM: 10 μM test compound; for inhibition at 10 µM: read-out: % Inhibition HSD1 10 μM. A digest of the protocol:
(§1)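 Whole-cell MCF-7 lines, one isoenzyme each; substrate 2 nM ³H-estrone (type 1), ³H-estradiol (type 2) or ³H-androstenedione (type 3) in growth medium + compound at two concentrations. TCA stop, HPLC-radioflow read; % inhibition from reduced conversion vs no-compound control.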

For assay [2], the target named is T2, 17β-hydroxysteroid dehydrogenase type 2 (17β-HSD type 2) (Homo sapiens, UniProt P37059).
T2 construct: expressed in transfected cells; host or cells: MCF-7
T2 sequence (P37059 1-387): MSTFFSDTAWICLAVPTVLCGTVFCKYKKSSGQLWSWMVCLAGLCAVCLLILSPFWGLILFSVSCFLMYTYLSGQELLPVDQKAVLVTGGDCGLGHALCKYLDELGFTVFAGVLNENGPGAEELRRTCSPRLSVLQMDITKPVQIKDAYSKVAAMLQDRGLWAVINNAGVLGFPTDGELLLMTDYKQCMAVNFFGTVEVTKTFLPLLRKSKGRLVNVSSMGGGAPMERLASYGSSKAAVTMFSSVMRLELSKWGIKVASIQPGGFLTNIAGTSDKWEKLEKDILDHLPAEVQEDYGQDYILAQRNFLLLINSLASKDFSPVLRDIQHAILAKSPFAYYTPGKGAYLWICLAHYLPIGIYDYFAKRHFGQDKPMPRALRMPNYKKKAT
The experiment in a line: Inhibition of 17β-HSD type 2 in MCF-7 cells stably expressing the isoenzyme (tritium labeled estradiol conversion, HPLC). The note with it: MCF-7 cells expressing 17β-HSD type 2, 2 nM tritium labeled estradiol; for inhibition at 1 µM / inhibition at 10 µM: MCF7; for inhibition at 1 µM / % Inhibition HSD2 1 μM: 1 μM test compound; for inhibition at 1 µM: read-out: % Inhibition HSD2 1 μM; for inhibition at 10 µM / % Inhibition HSD2 10 μM: 10 μM test compound; for inhibition at 10 µM: read-out: % Inhibition HSD2 10 μM. A digest of the protocol:
as §1

Assay [3] concerns the target T3, 17β-hydroxysteroid dehydrogenase type 3 (17β-HSD type 3) (Homo sapiens, UniProt P37058).
T3 construct: expressed in transfected cells; host or cells: MCF-7
T3 sequence (P37058 1-310): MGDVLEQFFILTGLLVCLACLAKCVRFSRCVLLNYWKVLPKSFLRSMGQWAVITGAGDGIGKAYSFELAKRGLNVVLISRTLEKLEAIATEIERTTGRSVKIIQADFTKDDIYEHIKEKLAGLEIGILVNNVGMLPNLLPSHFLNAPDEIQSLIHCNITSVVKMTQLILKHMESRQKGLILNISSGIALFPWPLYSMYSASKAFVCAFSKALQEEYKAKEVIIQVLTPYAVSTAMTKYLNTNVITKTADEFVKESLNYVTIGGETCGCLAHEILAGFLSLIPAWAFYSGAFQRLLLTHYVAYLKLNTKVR
The experiment in a line: Inhibition of 17β-HSD type 3 in MCF-7 cells stably expressing the isoenzyme (tritium labeled androstenedione conversion, HPLC). The following applies: MCF-7 cells expressing 17β-HSD type 3, 2 nM tritium labeled androstenedione; for inhibition at 1 µM / inhibition at 10 µM: MCF7; for inhibition at 1 µM / % Inhibition HSD3 1 μM: 1 μM test compound; for inhibition at 1 µM: read-out: % Inhibition HSD3 1 μM; for inhibition at 10 µM / % Inhibition HSD3 10 μM: 10 μM test compound; for inhibition at 10 µM: read-out: % Inhibition HSD3 10 μM. In short, it runs like this:
as §1

As usually defined, the inhibition is the drop in the measured response relative to a control, in per cent.

For `CCCCn1c(-c2cccs2)nc2sc3c(c2c1=O)CCCC3`, the inhibition at 1 µM in assay [1] is 14.9%; in assay [2], 18.5%; in assay [3], 3.1%. In addition, the inhibition at 10 µM in assay [1] amounted to 28.6%; in assay [2], 20.5%; in assay [3], 14.7%.

Turning to `COc1ccc(-c2nc3sc4c(c3c(=O)n2Cc2ccccc2)CCC(Br)C4=O)cc1` (stereo not drawn) [No. 146, 3-Benzyl-7-bromo-2-p-methoxyphenyl-6,7-dihydro-3H,5H-benzo[4,5]thieno[2,3-d]pyrimidine-4,8-dione], the values for the inhibition at 1 µM in assay [1], in assay [2] and in assay [3] were 7.3%, 14.3% and 14.7%, respectively. For the same molecule, the inhibition at 10 µM in assay [1] came to 50.9%; in assay [2], 5.1%; in assay [3] it was 37.9%.

As for `COc1cc(-c2nc3sc4c(O)ccc(C)c4c3c(=O)n2Cc2ccccc2)c(Br)c(OC)c1OC` [No. 686, 3-Benzyl-2-(2-bromo-3,4,5-trimethoxyphenyl)-8-hydroxy-5-methyl-3H-benzo[4,5]thieno[2,3-d]pyrimidin-4-one], the inhibition at 1 µM in assay [1] was 2.1%; in assay [2], 2.1%; in assay [3], -1.1%. The inhibition at 10 µM amounted to 15% in assay [1], 4.3% in assay [2] and 7.1% in assay [3].

On to `CC(C)=Cc1nc2sc3c(O)cccc3c2c(=O)n1CCc1cccs1` [No. 648], for which, in assay [1], the “% Inhibition HSD1 1 μM” value is 18.0% and the “% Inhibition HSD1 10 μM” value is on record as 24.6%. In assay [2], the “% Inhibition HSD2 1 μM” value came to 16.0% and the “% Inhibition HSD2 10 μM” value came to 40.2%. Moreover, in assay [3], the “% Inhibition HSD3 1 μM” value stood at 17.7% and the “% Inhibition HSD3 10 μM” value is listed as 70.1%.

Take `CCCCn1c(-c2cc(OC)c(OC)c(OC)c2)nc2sc3c(c2c1=O)CC(C)CC3` (stereo not drawn) [No. 691, 3-Butyl-6-methyl-2-(3,4,5-trimethoxyphenyl)-5,6,7,8-tetrahydro-3H-benzo[4,5]thieno[2,3-d]pyrimidin-4-one]: the inhibition at 1 µM in assay [1] was 7%; in assay [2], 2.1%; in assay [3] it was -5.3%. Moreover, the results for the inhibition at 10 µM in assay [1], in assay [2] and in assay [3] were 22.6%, -6.3% and 11.9%, respectively.

Turning to `COCc1nc2sc3c(O)cccc3c2c(=O)n1CCc1ccccc1` [No. 629], in assay [1], the “% Inhibition HSD1 1 μM” value turned out to be 22.4% and the “% Inhibition HSD1 10 μM” value was determined as 33.1%. In addition, in assay [2], the “% Inhibition HSD2 1 μM” value was found to be 39.1% and the “% Inhibition HSD2 10 μM” value is 71.7%. For the same molecule, in assay [3], the “% Inhibition HSD3 1 μM” value was determined as 19.3% and the “% Inhibition HSD3 10 μM” value is 35.9%.

With `O=c1c2c(nc(Cc3ccccc3)n1Cc1ccccc1)sc1c(O)cccc12` [No. 660], in assay [1], the “% Inhibition HSD1 1 μM” value came to 21.7% and the “% Inhibition HSD1 10 μM” value is 37.1%. Besides, in assay [2], the “% Inhibition HSD2 1 μM” value is on record as 19.8% and the “% Inhibition HSD2 10 μM” value was 48.9%. Moreover, in assay [3], the “% Inhibition HSD3 1 μM” value worked out at 16.6% and the “% Inhibition HSD3 10 μM” value came to 19.9%.

For the molecule `O=C(OCCn1c(-c2cccs2)nc2sc3c(c2c1=O)CCCC3=O)c1cccs1` [No. 70, Thiophene-2-carboxylic acid 2-(4,8-dioxo-2-thiohen-2-yl-5,6,7,8-tetrahydro-4H-benzo[4,5]thieno[2,3-d]pyrimidin-3-yl)-ethyl ester], the inhibition at 1 µM was 15.3% in assay [1], 13.1% in assay [2] and -4.1% in assay [3]. For the same molecule, the inhibition at 10 µM in assay [1] is 39.4%; in assay [2], 17.9%; in assay [3] it was 44.2%.

For the molecule `CCSc1c(C=O)ccc2c1sc1nc(-c3ccc(OC)cc3)n(Cc3ccccc3)c(=O)c12` [No. 18, 3-Benzyl-8-ethylsulfanyl-2-(p-methoxyphenyl)-4-oxo-3,4-dihydro-benzo[4,5]thieno[2,3-d]pyrimidine-7-carbaldehyde], the figures for the inhibition at 1 µM in assay [1], in assay [2] and in assay [3] were 12.1%, 0% and 66.1%, respectively. Besides, the inhibition at 10 µM in assay [1] amounted to 25.9%; in assay [2], 15.1%; in assay [3], 100%.

On to `COc1cc(-c2nc3sc4c(c3c(=O)n2Cc2ccccc2)CCCC4O)cc(OC)c1OC` (stereo not drawn) [No. 145, 3-Benzyl-8-hydroxy-2-(3,4,5-trimethoxyphenyl)-5,6,7,8-tetrahydro-3H-benzo[4,5]thieno[2,3-d]pyrimidin-4-one], for which the inhibition at 1 µM was 23.6% in assay [1], 25.9% in assay [2] and 19.2% in assay [3]. Besides, the inhibition at 10 µM in assay [1] was determined as 21.2%; in assay [2], 25.7%; in assay [3] it was 21.6%.

Turning to `COc1cc(-c2nc3sc4c(c3c(=O)n2Cc2ccccc2)C(Br)CCC4=O)cc(OC)c1OC` (stereo not drawn) [No. 137, 3-Benzyl-5-bromo-2-(3,4,5-trimethoxyphenyl)-6,7-dihydro-3H,5H-benzo[4,5]thieno[2,3-d]pyrimidine-4,8-dione], the figures for the inhibition at 1 µM in assay [1], in assay [2] and in assay [3] were 35%, 28.1% and 19.3%, respectively. Besides, the inhibition at 10 µM was 76% in assay [1], 32.9% in assay [2] and 49.8% in assay [3].

Consider `COc1cc(-c2nc3sc4c(OC)cccc4c3c(=O)n2Cc2ccccc2)cc(OC)c1OC` [No. 138, 3-Benzyl-8-methoxy-2-(3,4,5-trimethoxyphenyl)-3H-benzo[4,5]thieno[2,3-d]pyrimidin-4-one], for which the inhibition at 1 µM in assay [1] was 20.6%; in assay [2], 25.7%; in assay [3], 6.8%. Besides, the inhibition at 10 µM in assay [1] is 21.5%; in assay [2], 24.8%; in assay [3], 23%.

As to `COc1cc(-c2nc3sc4c(c3c(=O)n2Cc2cccnc2)CCCC4)cc(OC)c1OC` [No. 144], the figures for the inhibition at 1 µM in assay [1], in assay [2] and in assay [3] were 23.5%, 13.6% and 12.7%, respectively. Further, the inhibition at 10 µM in assay [1] is 33.7%; in assay [2], 31.1%; in assay [3] it was 19.3%.

Regarding `CCC(C)Cn1c(-c2cc(OC)c(OC)c(OC)c2)nc2sc3c(c2c1=O)CCCC3=O` (stereo not drawn) [No. 126, 3-(2-Methylbutyl)-2-(3,4,5-trimethoxyphenyl)-6,7-dihydro-3H,5H-benzo[4,5]thieno[2,3-d]pyrimidine-4,8-dione], the inhibition at 1 µM in assay [1] came out at 27.4%; in assay [2], 6.6%; in assay [3], 8%. The results for the inhibition at 10 µM in assay [1], in assay [2] and in assay [3] were 59.3%, -9% and 36.3%, respectively.

Take `CCCc1nc2sc3c(c2c(=O)n1Cc1ccccc1OC)CCCC3=O` [No. 95, 3-(2-Methoxybenzyl)-2-propyl-6,7-dihydro-3H,5H-benzo[4,5]thieno[2,3-d]pyrimidine-4,8-dione]: the inhibition at 1 µM stood at 17% in assay [1], 6.9% in assay [2] and 9.9% in assay [3]. Besides, the inhibition at 10 µM in assay [1] is 59.6%; in assay [2] it was 31.2%; in assay [3], 62.4%.
